Test results taken from patent US11180462B2, “Microbiocidal oxadiazole derivatives” (SYNGENTA PARTICIPATIONS AG, priority 2015, dated 2021).

How the values were obtained:
[1] = tested on: Puccinia recondita f. Sp. Tritici; experiment: Fungicidal activity against Puccinia recondita f. sp. tritici / wheat / leaf disc preventative (brown rust); type: in vivo; settings: foliar, 200 ppm in the applied formulation, wheat leaf segments, preventative, compared to untreated control leaf disks, read-out: disease control
In short: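 Compound application precedes infection: segments of wheat cv. Kanzler, sprayed at 200 ppm, are inoculated with a spore suspension after 1 day. Incubation is at 19° C. with 75% relative humidity and 12 h light/12 h darkness, and control versus untreated leaves is rated 7 to 9 days post-application.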

[2] = tested on: Glomerella lagenarium (Colletotrichum lagenarium); experiment: Fungicidal activity against Glomerella lagenarium (Colletotrichum lagenarium) liquid culture / cucumber / preventative (anthracnose); type: cell-based; settings: Colletotrichum orbiculare; 20 ppm in the applied formulation; liquid culture (PDB), growth inhibition measured photometrically after 3 to 4 days; compared to untreated control; read-out: disease control
In short: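 Photometric read-out of fungal growth after 2–7 days, expressed as percent antifungal activity versus untreated check. Cryo-stored conidia in PDB; compound at 20 ppm; dark, 24 °C, 96% RH.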

[3] = tested on: Puccinia recondita f. Sp. Tritici; experiment: Fungicidal activity against Puccinia recondita f. sp. tritici / wheat / leaf disc curative (brown rust); type: in vivo; settings: foliar, 24 h, 200 ppm in the applied formulation, wheat leaf segments, curative (applied 1 day after inoculation), compared to untreated control leaf disks, read-out: disease control
In short: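 % disease control vs untreated, scored 6–8 d post-application. Wheat cv. Kanzler segments, spore-inoculated, dark 19° C/75% RH; formulated cpd applied 1 d post-inoc; then 19° C, 75% RH, 12 h L/12 h D.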

Phakopsora Pachyrhizi = experiment: Fungicidal activity against Phakopsora pachyrhizi / soybean / leaf disc preventative (Asian soybean rust); type: in vivo; settings: foliar, 200 ppm in the applied formulation, soybean leaf disks, compared to untreated control leaf disks, read-out: disease control
In short: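 Preventative soybean leaf-disc test: discs on water agar sprayed with diluted formulated compound, inoculated one day later with spores on the lower surface. Held 24–36 h dark at 20°C, 75% rh, then 12 h light/day; percent disease control versus untreated discs scored 12–14 days after application.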

Compound | melting point [°C] | pest or weed control at 200 ppm [1] [%] | inhibition of growth at 20 ppm [2] [%] | pest or weed control at 200 ppm [3] [%] | pest or weed control at 200 ppm (Phakopsora Pachyrhizi) [%]
CCOC(=O)c1cnn(CC(=O)N(Cc2ccc(-c3noc(C(F)(F)F)n3)cc2)OC)c1 [Compound 1.807, ethyl 1-[2-[methoxy-[[4-[5-(trifluoromethyl)-1,2,4-oxadiazol-3-yl]phenyl]methyl]-amino]-2-oxo-ethyl]pyrazole-4-carboxylate] | 79.1 to 80.4 |  |  |  | 
CCC(=O)NC(C(=O)N(Cc1ccc(-c2noc(C(F)(F)F)n2)cc1)OC)C(C)C (centres unmarked) [Compound 1.802, N-methoxy-3-methyl-2-(propanoylamino)-N-[[4-[5-(trifluoromethyl)-1,2,4-oxadiazol-3-yl]phenyl]methyl]-butanamide] | 98.5 to 100.6 |  |  |  | 
CON(Cc1ccc(-c2noc(C(F)(F)F)n2)cc1)C(=O)Cn1cncn1 [Compound 1.808, N-methoxy-2-(1,2,4-triazol-1-yl)-N-[[4-[5-(trifluoromethyl)-1,2,4-oxadiazol-3-yl]phenyl]methyl]-acetamide] | 125.1 to 127.2 |  |  |  | 
CNC(=O)N(Cc1ccc(-c2noc(C(F)(F)F)n2)cc1)C1CC1 [Compound 3.35, 1-cyclopropyl-3-methyl-1-[[4-[5-(trifluoromethyl)-1,2,4-oxadiazol-3-yl]phenyl]methyl]urea] | 113 to 114 | ≥ 80 | ≥ 80 |  | 
CON(Cc1ccc(-c2noc(C(F)(F)F)n2)cn1)C(=O)c1ccccc1Cl [Compound 1.572, 2-chloro-N-methoxy-N-[[5-[5-(trifluoromethyl)-1,2,4-oxadiazol-3-yl]-2-pyridyl]methyl]-benzamide] | 80 to 89 | ≥ 80 | ≥ 80 |  | 
CON(Cc1ccc(-c2noc(C(F)(F)F)n2)cc1)C(=O)CBr [Compound 1.806, 2-bromo-N-methoxy-N-[[4-[5-(trifluoromethyl)-1,2,4-oxadiazol-3-yl]phenyl]methyl]-acetamide] | 81.2 to 84.9 |  |  |  | 
CON(Cc1ccc(-c2noc(C(F)(F)F)n2)cc1)C(=O)C(C)NC(=O)C1CC1 (centres unmarked) [Compound 1.798, N-[2-(methoxy-[[4-[5-(trifluoromethyl)-1,2,4-oxadiazol-3-yl]phenyl]methyl]-amino]-1-methyl-2-oxo-ethyl]-cyclopropane-carboxamide] | 129.7 to 134 |  |  |  | 
CON(Cc1ccc(-c2noc(C(F)(F)F)n2)cc1)C(=O)C1CCCN1C(C)=O (centres unmarked) [Compound 1.805, 1-acetyl-N-methoxy-N-[[4-[5-(trifluoromethyl)-1,2,4-oxadiazol-3-yl]phenyl]methyl]-pyrrolidine-2-carboxamide] | 93.9 to 96.8 |  |  |  | 
CON(Cc1ccc(-c2noc(C(F)(F)F)n2)cc1)C(=O)C1CCCN1.Cl (centres unmarked) | 185.5 to 188.5 |  |  |  | 
CCC(=O)NC(C)C(=O)N(Cc1ccc(-c2noc(C(F)(F)F)n2)cc1)OC (centres unmarked) [Compound 1.797, N-methoxy-2-(propanoylamino)-N-[[4-[5-(trifluoromethyl)-1,2,4-oxadiazol-3-yl]phenyl]methyl]-propanamide] | 121.7 to 123.9 |  |  |  | 
CCC(=O)N1CCCC1C(=O)N(Cc1ccc(-c2noc(C(F)(F)F)n2)cc1)OC (centres unmarked) [Compound 1.803, N-methoxy-1-propanoyl-N-[[4-[5-(trifluoromethyl)-1,2,4-oxadiazol-3-yl]phenyl]methyl]-pyrrolidine-2-carboxamide] | 148.2 to 150.6 |  |  |  | 
CCON(Cc1ccc(-c2noc(C(F)(F)F)n2)cc1)C(=O)CCCOC [Compound 1.625, N-ethoxy-4-methoxy-N-[[4-[5-(trifluoromethyl)-1,2,4-oxadiazol-3-yl]phenyl]methyl]-butanamide] |  | ≥ 80 | ≥ 80 | ≥ 80 | ≥ 80
CON(C)C(=O)N(Cc1ccc(-c2noc(C(F)(F)F)n2)cc1)C1CC1 [Compound 3.33, 1-cyclopropyl-3-methoxy-3-methyl-1-[[4-[5-(trifluoromethyl)-1,2,4-oxadiazol-3-yl]phenyl]methyl]urea] |  | ≥ 80 | ≥ 80 | ≥ 80 | ≥ 80
